This note sets out measurements from patent US20110171328A1, “PHARMACEUTICAL COMPOSITION FOR TREATING DIABETES” (priority 2008, published 2011).

In assay [1] the test system is NOD mice with spontaneous hyperglycemia. The assay can be described thus: Serum insulin of mice with spontaneous hyperglycemia (radioimmunoassay). The format is in vivo. To be noted: for Serum insulin: 1 h after administration at day 14, X ± SD; for Effect on serum insulin of the NOD mice, result in words: 20 mg/kg, 14 days. How it is done:
(§1) Impacts of the composition in different doses on blood glucose and serum insulin of mice with spontaneous hyperglycemia
(§2) 1, Medicines: 1-deoxynojirimycin and fagomine, prepared by the inventor. The two are prepared into the required concentrations with distilled water before the test (the sum of the concentrations of the 1-deoxynojirimycin and the fagomine in the composition is the same as the concentration of the fagomine or the 1-deoxynojirimycin which is prepared alone). Glibenclamide is obtained from Hunan Dongting Pharmaceutical Co., Ltd. 2. Animals: NOD mice with the weight of 25-35 g, provided by Experimental Animal Center, Peking University Health Science Center. Determine the blood glucose before the test and select the animals with the blood glucose value of above 11.1 mmol/L for carrying out the test. 3. Determination instrument: Yicheng blood glucose tester, developed by Beijing Yicheng Bioelectronic Technology Co., Ltd. 4. Main reagents: ^125I-insulin radioimmunoassay kit, produced by Department of Isotopes, China Institute of Atomic Energy. 5. Test method and results (1) Impacts on the blood glucose of the mice: determine the blood glucose of the NOD mice after fasting for 6 h, select 70 animals with blood glucose above 11.1 mmol/L, randomly divide into seven groups, respectively carry out intragastric administration and give the following medicines: i) control group (distilled water); ii) glibenclamide group (50 mg/kg); and iii)-v) composition in different mixing ratios (20 mg/kg, with different medicine proportions and constant total amount). Carry out the continuous administration for 14 days, fast for 6 h before the administration at the 14th day, draw blood from the animals 1 h after the administration, use the Yicheng blood glucose tester to determine the blood glucose value of the animals, and determine the serum insulin by radioimmunoassay.

The test system of assay [2] is α-D-glucosidase. The assay can be described thus: Determination of α-D-glucosidase inhibitory activity (PNPG colorimetry at 400 nm). The format is biochemical. The following applies: 30 μL inhibitor sample solution in total, from 5 μmol/mL stock solutions, total amount of DNJ and Fag constant, 37° C. The source says: Determination of α-D-glucosidase inhibitory activity of the combination compatibility of 1-deoxynojirimycin and fagomine. 1. Medicines: 1-deoxynojirimycin and fagomine, homemade. 2. Reagents: potassium dihydrogen phosphate, sodium hydroxide, sodium bicarbonate, para-nitrophenyl glucoside (PNPG), reduced glutathione and α-D-glucosidase sucrose. 3. Instrument: TU-1901 UV-Vis spectrophotometer. 4. Test method and results (1) Preparation of potassium phosphate buffer solution: dissolve 0.68120 g of potassium dihydrogen phosphate in 25 mL of distilled water, obtain stock solution 1, dissolve 0.2 g of NaOH in 25 mL of the distilled water, obtain stock solution 2, suck the stock solution 1 (25 mL), add into the stock solution 2 (11.8 mL), shake up, dilute to 100 mL and obtain the potassium phosphate buffer solution. (2) Na2CO[…] solution: […] Take 250 μL of the 1-deoxynojirimycin stock solution, dilute to 1 mL with the distilled water, and obtain the stock solution 1. Take 250 μL of the fagomine stock solution, dilute to 1 mL with the distilled water, and obtain the stock solution 2. […] (9) Determination reaction of α-D-glucosidase inhibitory activity Add the reagents according to the sequence in Table 1 for reaction, determine the absorbance value and calculate the α-glycosidase inhibition ratio of a sample according to the following formula: [formula] […]

In assay [3] the test system is NOD mice with spontaneous hyperglycemia. Briefly: Blood glucose of mice with spontaneous hyperglycemia after 14 days intragastric administration. The following applies: for Blood glucose after administration: 1 h after administration at day 14, fasted 6 h, X ± SD; for Blood glucose before administration: n=10, X ± SD. The format is in vivo. How it is done:
as §1, §2

Assay [4] relates to SD rats with streptozotocin-induced hyperglycemia. The assay can be described thus: Blood glucose of rats with streptozotocin-induced hyperglycemia after intragastric sucrose. The following applies: STZ rats, 60 mg/kg intragastric for 14 days. The format is in vivo.
Procedure: Medicines: 1-deoxynojirimycin-fagomine mixture (2:1), homemade. The mixture is prepared to the required concentration with distilled water before the test. Glucobay is obtained from Bayer Healthcare Co., Ltd. Catechin, ginkgo biloba extract and flavonoids from mulberry leaves were obtained from Hunan Geneham Biomedical Technology Ltd. 2. Animals: SD rats with the weight of 180-220 g, half male and half female, provided by Hunan Institute of Pharmaceutical Industry Research. Modeling method: carry out small dose intravenous injection of 25 mg/kg of streptozotocin on the rats after fasting for 24 h, once a week, simultaneously heat feed for feeding, induce H type diabetes, determine the blood glucose 1 week after the second injection, and select the animals with the fasting blood glucose of above 7.8 mmol/L for carrying out the test. […] Reagents: streptozotocin, product of Sigma Company, USA. Use citric acid buffer solution (PH=4.0) before modeling, and prepare at low temperature; sucrose, analytically pure. […] PLUS blood glucose monitoring meter. […]
[5] abbreviates: 20 mg/kg intragastric for 14 days.
[6] abbreviates: 50 mg/kg intragastric for 14 days.

In turn, `OCC1NCC(O)C(O)C1O` (stereo not shown) [DNJ] had a Serum insulin in assay [1] (setting [5]) of 16.14 ± 2.63 MIU/L. Further, the “Effect on serum insulin of the NOD mice, result in words” value in assay [1] is reported as “little effect”. Besides, in assay [2], the “α-glycosidase inhibition ratio %” value stood at 44%. Besides, the “Blood glucose after administration” value in assay [3] (setting [5]) was found to be 10.60 ± 2.13 mmol/L. In addition, the “Blood glucose before administration” value in assay [3] (20 mg/kg intragastric) is on record as 14.20 ± 1.33 mmol/L. The “Effect on blood glucose of the NOD mice, result in words” value in assay [3] (20 mg/kg, 14 days) is on record as “significantly reduce the blood glucose”.
For the molecule `OC[C@H]1NCC[C@@H](O)[C@@H]1O` [Fagomine, fagomine], the Serum insulin in assay [1] (setting [5]) is 21.78 ± 3.34 MIU/L. For the same molecule, the “Effect on serum insulin of the NOD mice, result in words” value in assay [1] was “significantly improve the serum insulin level”. For the same molecule, in assay [2], the “α-glycosidase inhibition ratio %” value worked out at 21%. In addition, the “Blood glucose after administration” value in assay [3] (setting [5]) was 12.24 ± 1.62 mmol/L. The “Blood glucose before administration” value in assay [3] (20 mg/kg intragastric) was 13.49 ± 1.65 mmol/L.
In assay [1] (setting [6]), `COc1ccc(Cl)cc1C(=O)NCCc1ccc(S(=O)(=O)NC(=O)NC2CCCCC2)cc1` [Glibenclamide] had a Serum insulin of 22.57 ± 3.05 MIU/L. In assay [3] (setting [6]), the “Blood glucose after administration” value is given as 10.57 ± 2.17 mmol/L. The “Blood glucose before administration” value in assay [3] (50 mg/kg intragastric) is recorded as 13.26 ± 2.26 mmol/L.
Regarding Catechin, in assay [4] (day 14, 1.0 h after 5.0 g/kg sucrose), the “Blood glucose value of rats with hyperglycemia, after administration” value was 14.10 ± 1.50 mmol/L. Further, in assay [4] (day 14, fasted 6 h, before sucrose administration), the “Blood glucose value of rats with hyperglycemia, before administration” value came out at 9.17 ± 0.89 mmol/L.
